Paper PMC10820528, “New Rare Triterpene Glycosides from Pacific Sun Star, Solaster pacificus, and Their Anticancer Activity” (Marine Drugs, 2023)
Read-outs that look alike come from different tables or passages of the source.

Key:
[1] = test system: RPMI-7951 cells; details: non-toxic concentration; cited from earlier work
[2] = test system: MDA-MB-231 cells; details: non-toxic concentration; cited from earlier work
[3] = test system: HT-29 cells; details: non-toxic concentration; cited from earlier work
[4] = test system: breast cancer MDA-MB-231 cells; assay: cells; format: cell-based; details: for IC50: read-out: IC50, MDA-MB-231
Method: (§1) We calculated the inhibiting concentration that cause death of 50% of cells (IC50) and the selectivity index (SI) of the compounds tested (Table 4).
(§2) The human embryonic kidney HEK 293 cells (ATCC® CRL-1573™), breast cancer MDA-MB-231 cells (ATCC® HTB-26™), and colorectal carcinoma HCT 116 cells (ATCC® CCL-247™) were purchased from the American Type Culture Collection (Manassas, VA, USA). The HEK 293 and MDA-MB-231 cells were cultured in DMEM; the HCT 116 cells were cultured in the McCoy’s 5A medium at 37 °C in a humidified atmosphere containing 5% CO2. The culture media were supplemented with 10% heat-inactivated FBS and a 1% penicillin/streptomycin solution. The number of passages was carefully controlled, and contamination by Mycoplasma was monitored on a regular basis.
(§3) Compounds 1–3, and 6–8 were dissolved in sterile dimethyl sulfoxide (DMSO), to prepare stock concentrations of 20 mM. Cells were treated with serially diluted 1–3, 6–8 (0.3–100 µM) (with the culture medium used as diluent) (the final concentration of DMSO was less than 0.5%). The vehicle control was the cells treated with an equivalent volume of DMSO (the final concentration was less than 0.5%) for all of the presented experiments.
(§4) HEK 293 (1.0 × 10^4/200 µL), HCT 116 (1.0 × 10^4/200 µL), and MDA-MB-231 (0.8 × 10^4/200 µL) cells were seeded in a 96-well plate and incubated for 24 h at 37 °C in a CO2 incubator. […] The cells were subsequently incubated with 15 µL of the MTS reagent for 3 h. The absorbance of each well was measured at 490/630 nm on a Power Wave XS microplate reader (BioTek, Winooski, VT, USA).
(§5) The IC50 concentration was calculated using the AAT-Bioquest® online calculator [24]. The selectivity index (SI) was calculated as described previously, using the following formula: SI = IC50 of the compounds for normal cells (HEK 293) divided by IC50 of the same compounds for the human colorectal adenocarcinoma and breast cancer (HCT 116 and MDA-MB-231) cell lines.

[5] = test system: human embryonic kidney HEK 293 cells; assay: cells; format: cell-based; details: for IC50: read-out: IC50, HEK 293
Method: as §1, §2, §3, §4, §5

[6] = test system: colorectal carcinoma HCT 116 cells; assay: cells; format: cell-based; details: for IC50: Homo sapiens, read-out: IC50, HCT 116
Method: We determined the cytotoxicity of compounds 1–3 and 6–8 against human embryonic kidney HEK 293, colorectal carcinoma HCT 116, and breast cancer MDA-MB-231 cells by the MTS assay, after 24 h of treatment with the compounds. We calculated the inhibiting concentration that cause death of 50% of cells (IC50) and the selectivity index (SI) of the compounds tested (Table 4).
as §2, §3, §4, §5

[7] = test system: JB6 Cl41 cells; parameters: method as in PMID 35323516; details: induced by chemical carcinogens (EGF and TPA) or ionizing radiation (X-rays and UVB), non-toxic concentrations; cited from earlier work
[8] = test system: SK-MEL-2 cancer cells; parameters: method as in PMID 35323516; details: non-toxic concentrations; cited from earlier work
[9] = Homo sapiens, MDA-MB-231, MTS assay, 24 h of cell incubation, mean ± SD
[10] = Homo sapiens, HEK293, MTS assay, 24 h of cell incubation, mean ± SD
[11] = HCT-116, MTS assay, 24 h of cell incubation, mean ± SD
[12] = MTS assay, cisplatin, 48 h of cell incubation, mean ± SD

Molecule: COC1C(O)COC(OC2C(O)C(CO)OC(OC3C(C)OC(OC4C(OC5CCC6(C)C7CCC89C(=O)OC(C)(/C=C/C=C(C)C)C8C(OC(C)=O)CC9(C)C7=CCC6C5(C)C)OCC(O)C4O)C(OC4OCC(O)C(O)C4O)C3O)C2O)C1O (centres unmarked) [cucumarioside C2]
- colony formation of RPMI-7951 cells [1]: almost completely suppress
- colony formation of MDA-MB-231 cells [2]: almost completely suppress
- colony formation of HT-29 cells [3]: almost completely suppress

Molecule: pacificusoside C
- colony formation of RPMI-7951 cells [1]: almost completely suppress
- colony formation of MDA-MB-231 cells [2]: almost completely suppress
- colony formation of HT-29 cells [3]: almost completely suppress

Molecule: COC1C(O)COC(OC2C(O)C(CO)OC(OC3C(C)OC(OC4C(OC5CCC6(C)C7CCC89C(=O)OC(C)(C=CC=C(C)C)C8C(OC(C)=O)CC9(C)C7=CCC6C5(C)C)OCC(O)C4O)C(O)C3O)C2O)C1O (centres unmarked) [Compound 8, cucumarioside A5]
- IC50 ([4]; Homo sapiens, MDA-MB-231, 24 h): 13.1 ± 4.2 µM
- IC50 ([5]; Homo sapiens, HEK293, 24 h): 6.2 ± 0.7 µM
- IC50 ([6]; HCT-116, 24 h): 11.4 ± 2.7 µM

Molecule: COC1C(O)C(CO)OC(OC2C(O)C(CO)OC(OC3C(C)OC(OC4C(OC5CCC6(C)C7CCC89C(=O)OC(C)(C=CC=C(C)C)C8C(OC(C)=O)CC9(C)C7=CCC6C5(C)C)OCC(O)C4O)C(OC4OCC(O)C(O)C4O)C3O)C2O)C1O (centres unmarked) [cucumarioside D]
- neoplastic transformation of JB6 Cl41 cells [7]: significantly inhibit
- colony formation of SK-MEL-2 cancer cells [8]: highest inhibiting effect

Molecule: COC1C(O)COC(OC2C(O)C(CO)OC(OC3C(C)OC(OC4C(OC5CCC6(C)C7=C(CCC6C5(C)C)C5(C)CC(OC(C)=O)C6C(C)(C=CC=C(C)C)OC(=O)C65CC7)OCC(O)C4O)C(O)C3O)C2O)C1O [Compound 6, 3β-O-[3-O-methyl-β-D-xylopyranosyl-(1→3)-β-D-glucopyranosyl-(1→4)-β-D-quinovopyranosyl-(1→2)-β-D-xylopyranosyl]-16β-acetoxyholosta-8(9),22E,24-triene]
- IC50 [4, 9]: 29.8 ± 2.1 µM
- IC50 [5, 10]: 15.3 ± 1.2 µM
- IC50 [6, 11]: 25.5 ± 1.4 µM

Molecule: C=C(C)C1C2CC3(C)C4=CCC5C(C)(C)C(OC6OCC(O)C(O)C6OC6OC(C)C(O)C(O)C6OC6OCC(O)C(O)C6O)CCC5(C)C4CCC13C(=O)O2 [Compound 1, 3β-O-[β-D-xylopyranosyl-(1→2)-β-D-quinovopyranosyl-(1→2)-β-D-xylopyranosyl]-23,24,25,26,27-pentanor-5α-lanosta-7,20(22)-diene-18(16)-lactone]
- IC50 [4, 9]: 51.2 ± 0.8 µM
- IC50 [5, 10]: 27 ± 0.3 µM
- IC50 [6, 11]: 81 ± 3.2 µM

Molecule: CO[C@@H]1[C@@H](O)[C@H](O[C@@H]2[C@@H](O)[C@H](O[C@H]3[C@H](O)[C@@H](O[C@@H]4OC[C@@H](O)[C@H](O)[C@H]4O)[C@H](O[C@H]4[C@H](O[C@H]5CC[C@]6(C)[C@@H]7CCC89C(=O)O[C@@](C)(/C=C\C=C(C)C)[C@H]8[C@@H](OC(C)=O)C[C@@]9(C)C7=CC[C@H]6C5(C)C)OC[C@@H](O)[C@@H]4O)O[C@@H]3C)O[C@H](CO)[C@H]2O)OC[C@H]1O (some centres unmarked) [cucumarioside C1]
- colony formation of RPMI-7951 cells [1]: almost completely suppress
- colony formation of MDA-MB-231 cells [2]: almost completely suppress
- colony formation of HT-29 cells [3]: almost completely suppress

Molecule: CO[C@@H]1[C@@H](O)[C@H](O[C@@H]2[C@@H](O)[C@H](O[C@H]3[C@H](O)[C@@H](O)[C@H](O[C@H]4[C@H](O[C@H]5CC[C@]6(C)C7=C(CC[C@H]6C5(C)C)[C@]5(C)C[C@H](O)[C@H]([C@@](C)(O)CCC=C(C)C)[C@@]5(CO)CC7)OC[C@@H](O)[C@@H]4O)O[C@@H]3C)O[C@H](CO)[C@H]2O)OC[C@H]1O [Compound 3, (20S)-3β-O-[3-O-methyl-β-D-xylopyranosyl-(1→3)-β-D-glucopyranosyl-(1→4)-β-D-quinovopyranosyl-(1→2)-β-D-xylopyranosyl]-16β,18,20-trihydroxy-5α-lanosta-8(9),24-diene]
- cytotoxic activity in words, MDA-MB-231 [4]: Moderate
- IC50 [4, 9]: 36.7 ± 3.3 µM
- SI (selectivity index), MDA-MB-231 ([4]; mean IC50 against normal cells (HEK 293)/mean IC50 against MDA-MB-231, 24 h): 1.4
- cytotoxic activity in words, HEK 293 [5]: Moderate
- IC50 [5, 10]: 52.8 ± 0.8 µM
- cytotoxic activity in words, HCT 116 [6]: Moderate
- IC50 [6, 11]: 42.2 ± 0.4 µM
- SI (selectivity index), HCT 116 ([6]; mean IC50 against normal cells (HEK 293)/mean IC50 against HCT 116, 24 h): 1.25

Molecule: N.N.[Cl][Pt][Cl] [Cisplatin, cisplatin, reference compound]
- IC50 [4, 12]: 34.5 ± 0.5 µM
- IC50 [5, 12]: 64.6 ± 1.5 µM

Molecule: CO[C@@H]1[C@@H](O)[C@H](O[C@@H]2[C@@H](O)[C@H](O[C@H]3[C@H](O)[C@@H](O[C@@H]4OC[C@@H](O)[C@H](O)[C@H]4O)[C@H](O[C@H]4[C@H](O[C@H]5CC[C@]6(C)[C@@H]7CCC89C(=O)O[C@@](C)(/C=C/C=C(C)C)[C@H]8[C@@H](OC(C)=O)C[C@@]9(C)C7=CC[C@H]6C5(C)C)OC[C@@H](O)[C@@H]4O)O[C@@H]3C)O[C@H](CO)[C@H]2O)O[C@H](CO)[C@H]1O (some centres unmarked) [pacificusoside D]
- neoplastic transformation of JB6 Cl41 cells [7]: significantly inhibit
- colony formation of SK-MEL-2 cancer cells [8]: highest inhibiting effect

Molecule: CC(=O)OC1CC2(C)C3=CCC4C(C)(C)C(OC5OCC(O)C(O)C5OC5OC(C)C(O)C(O)C5OC5OCC(O)C(O)C5O)CCC4(C)C3CCC23C(=O)OC(C)(C=CC=C(C)C)C13 (centres unmarked) [Compound 7, cucumarioside B1]
- IC50 ([4]; Homo sapiens, MDA-MB-231, 24 h): 34 ± 2.9 µM
- IC50 ([5]; Homo sapiens, HEK293, 24 h): 28.5 ± 1.5 µM
- IC50 ([6]; HCT-116, 24 h): 35.6 ± 0.6 µM
